Like-named read-outs stand apart in the source and are kept apart here.
Tests used:
[1] = target: T1, CB2 receptor (RBL-2H3 cell membranes) (Rattus norvegicus, UniProt Q9QZN9); experiment: Competitive displacement of 3H-WIN 55,212-2 binding to RBL-2H3 cell membranes; conditions: for inhibition at 10 µM: read-out: % Displacement
T1 construct: Preparation of Plasmatic Membranes of RBL-2H3 Cells; endogenous in cells; host or cells: RBL-2H3 (rat basophilic leukemia) cell membranes
T1 sequence (Q9QZN9 1-360): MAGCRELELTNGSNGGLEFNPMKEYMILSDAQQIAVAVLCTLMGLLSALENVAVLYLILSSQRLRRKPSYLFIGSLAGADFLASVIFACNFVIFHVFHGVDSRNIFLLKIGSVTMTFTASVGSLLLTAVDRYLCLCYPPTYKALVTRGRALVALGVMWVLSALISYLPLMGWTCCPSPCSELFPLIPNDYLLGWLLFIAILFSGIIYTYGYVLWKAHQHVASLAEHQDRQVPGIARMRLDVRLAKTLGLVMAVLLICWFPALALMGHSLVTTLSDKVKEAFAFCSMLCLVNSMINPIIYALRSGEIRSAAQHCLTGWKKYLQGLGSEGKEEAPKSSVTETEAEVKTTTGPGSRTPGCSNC
Method: RBL-2H3 cells (100×10^6), frozen at -80° C., were thawed with 4 ml of Tris-HCl buffer solution 50 mM (pH 7.4), added with 0.25% w/v of Tripsin inhibitor, TYPE II-S: SOY BEAN® (distributed by Sigma). The cells were resuspended in the buffer and homogenized. The homogenate was centrifuged at 1500×g at 4° C. for 10 min. The supernatant obtained was collected and the precipitate was resuspended in 4 ml of the previous buffer. The resuspended precipitate was homogenized and centrifuged again at 1500×g at 4° C. for 5-10 min. The resulting supernatant was combined to the supernatant previously obtained and centrifuged at 5000×g for 10 min. After centrifugation, the supernatant was collected and further centrifuged at 40,000×g at 4° C. for 30 min. The resulting precipitate was resuspended in 0.5 ml of the buffer solution described above, with addition of 1% Bovine Serum Albumin fatty acid free. The obtained suspension was centrifuged at 40,000×g at 4° C. for 30 min. The resulting precipitate was collected and resuspended in buffer solution containing 50 mM Tris HCl, 1 mM Tris-EDTA, 3 mM MgCl2, pH 7.4, in order to obtain a proteic concentration of 1 μg/μl approx. This preparation may be used fresh, or frozen at -80° C. and utilized within few days.
Non-radioactive WIN 55,212-2 (1 μM) was used to inhibit specific binding. […] The competitors were added to the binding mixture prior to the labelled ligand. In both cases, for an evaluation of the reference specific binding, ethanol and DMSO were added at the same final concentration to the total binding and to the aspecific one, also in the absence of competitors.
WIN 55,212-2 was used at a concentration of 3 μM, whereas the other compounds were used at a concentration of 10 μM.
Incubation was carried out in the presence of 1% DMSO. The values of Inhibitory Concentration 50 (IC50) are expressed as means ± SEM, after the number of experiments reported hereinbelow.

RBL-2H3 cells = experiment: Inhibition of 3H-serotonin release induced by ADNP/DNP-HSA immunogenic stimulation in RBL-2H3 cells; format: cell-based, rat; conditions: for 3H-serotonin net release inhibition (%): + anandamide (12.5 μM) (Table 4); for functional effect following receptor activation (serotonin release): result in words; for inhibition at 100 µM: 100 μM (Table 8); for EC50: 15 minutes release period (Table 9)
[2] = target: T1, CB2 receptor (RBL-2H3 cell membranes); experiment: Competitive displacement of 3H-WIN 55,212-2 binding to RBL-2H3 cell membranes; conditions: competitor 10 μM; 0.1% DMSO
[3] = Solubility in water and organic solvents; conditions: for solubility in water: result in words
[4] = Rattus norvegicus, RBL-2H3, 0.25 h, read-out: 3H-serotonin net release (%)
[5] = read-out: ED50, inhibition of 3H-serotonin release, + anandamide (12.5 μM) (Table 5), 15 min
[6] = Rattus norvegicus, RBL-2H3, 0.25 h, 0.1% DMSO and 0.1% ethanol (Table 3), read-out: ED50 (the source's name)
[7] = Rattus norvegicus, RBL-2H3, read-out: 3H-serotonin net release inhibition (%)
[8] = dmso, organic solvent or mixture
[9] = ethanol, organic solvent or mixture
[10] = Rattus norvegicus, RBL-2H3, 0.25 h, 0.1% DMSO and 0.1% ethanol (Table 3), read-out: 3H-serotonin net release (%)
[11] = Rattus norvegicus, RBL-2H3, read-out: 3H-serotonin release inhibition %, 0.2% DMSO
[12] = Rattus norvegicus, RBL-2H3, read-out: 3H-serotonin release inhibition %, 1% DMSO
[13] = Rattus norvegicus, RBL-2H3, read-out: EC50, concentration inhibiting by 50% the net release of 3H serotonin, 0.2% DMSO
[14] = Rattus norvegicus, RBL-2H3, read-out: EC50, concentration inhibiting by 50% the net release of 3H serotonin, 1% DMSO
[15] = Rattus norvegicus, RBL-2H3, read-out: 3H-serotonin release inhibition %, 0.2% DMSO, 50 μM (Table 8)
[16] = hot ethanol, organic solvent or mixture

CCCCCCC(C)(C)c1cc(O)c2c(c1)OC(C)(C)[C@@H]1CCC(=O)C[C@@H]21 (relative stereo) [Nabilone, 3-(1,1-dimethylheptyl)-6,6a,7,8,10,10a-hexahydro-1-hydroxy-6,6-dimethyl-9H-dibenzo-[b,d]-pyran-9-one, reference compound]
IC50 [1]: 2.6 ± 1.4 nM | inhibition at 10 µM [1]: 100% | binding to the peripheral receptor ([1]; result in words): able to bind to the receptor and to compete | 3H-serotonin net release inhibition (%) (RBL-2H3 cells; 5 μM): 50% | activity at 10 µM (RBL-2H3 cells; [4]): 0% | IC50 (RBL-2H3 cells; Rattus norvegicus, RBL-2H3, 0.25 h, read-out: ED50): 2.8 µM | inhibition at 5 µM (RBL-2H3 cells; Rattus norvegicus, RBL-2H3, read-out: 3H-serotonin net release inhibition (%), 5 μM, - anandamide (Table 4)): 90% | IC50 (RBL-2H3 cells; [5]): 5 µM | functional effect following receptor activation (serotonin release) (RBL-2H3 cells): able to inhibit, in a concentration-dependent way, RBL cells immunogenic activation

C=C(C)[C@@H]1CCC(C)=C[C@H]1c1c(O)cc(CCCCC)cc1O [Cannabidiol, cannabidiol, reference compound]
IC50 [1]: > 1000 nM

CCCCCCCCCCCCCCCC(=O)N[C@@H](CO)c1ccccc1 [Example 1, N-palmitoyl-[(R)-2-amino-2-phenylethanol]]
IC50 [1]: 0.4 nM | inhibition at 10 µM [1]: 77% | 3H-serotonin net release inhibition (%) (RBL-2H3 cells; 3 μM): 39% | activity at 3 µM (RBL-2H3 cells; Rattus norvegicus, RBL-2H3, 0.25 h, 3 μM, 0.1% DMSO and 0.1% ethanol (Table 3), read-out: 3H-serotonin net release (%)): 0% | IC50 (RBL-2H3 cells; [6]): 0.6 µM | inhibition at 3 µM (RBL-2H3 cells; [7]): 100% | effect of anandamide co-incubation on the ability to inhibit serotonin release (RBL-2H3 cells; co-incubation with anandamide, in words): reduces the ability | IC50 (RBL-2H3 cells; [5]): 4 µM | functional effect following receptor activation (serotonin release) (RBL-2H3 cells): can inhibit the effects induced by mast cell activation and exert an effect that is higher than or comparable to the one of cannabinoids | Specific binding [2]: 325 | solubility [3, 8]: > 10000 µg/mL | solubility [3, 9]: > 10000 µg/mL | solubility in water [3]: scarcely soluble

CCCCCC/C=C\CCCCCCCC(=O)NCCO [Example 19, N-(2-hydroxyethyl)-palmitoleylamide]
inhibition at 10 µM [1]: 100% | activity at 100 µM (RBL-2H3 cells; [10]): 100% | solubility [3, 8]: > 10000 µg/mL | solubility [3, 9]: > 10000 µg/mL | solubility in water [3]: scarcely soluble

CCCCCCCCCCCC(=O)NCCO [Example 22, N-(2-hydroxyethyl)-lauroylamide]
IC50 ([1]; RBL-2H3 cell membranes, 1% DMSO, means ± SEM): 18.1 nM | inhibition at 10 µM [1]: 72% | inhibition at 100 µM (RBL-2H3 cells; [11]): 100% | inhibition at 100 µM (RBL-2H3 cells; [12]): 91% | EC50 (RBL-2H3 cells; [13]): 35 µM | EC50 (RBL-2H3 cells; [14]): 11 µM | solubility ([3]; chloroform, organic solvent or mixture): > 10000 µg/mL | solubility [3, 8]: > 10000 µg/mL | solubility in water [3]: scarcely soluble

O=C(/C=C/CCCCCCCCC(=O)NCCO)NCCO [Example 26, N,N'-bis(2-hydroxyethyl)-trans-2-dodecenediamide]
inhibition at 10 µM [1]: 72% | 3H-serotonin net release inhibition (%) (RBL-2H3 cells; 50 μM): 48% | activity at 50 µM (RBL-2H3 cells; Rattus norvegicus, RBL-2H3, 0.25 h, 50 μM, 0.1% DMSO and 0.1% ethanol (Table 3), read-out: 3H-serotonin net release (%)): 21% | IC50 (RBL-2H3 cells; [6]): 28 µM | inhibition at 100 µM (RBL-2H3 cells; [11]): > 95% | inhibition at 100 µM (RBL-2H3 cells; [12]): > 95% | inhibition at 50 µM (RBL-2H3 cells; [7]): 79% | IC50 (RBL-2H3 cells; [5]): 50 µM | Specific binding [2]: 402 | solubility [3, 8]: > 10000 µg/mL | solubility [3, 9]: > 10000 µg/mL | solubility ([3]; water): > 10000 µg/mL

CCCCCCCCCCCCCCCC(=O)NCCOP(=O)(O)O [Example 27, N-palmitoylethanolamide phosphate]
IC50 [1]: 7.6 nM | inhibition at 10 µM [1]: 42% | 3H-serotonin net release inhibition (%) (RBL-2H3 cells; 7.5 μM): 46% | activity at 7.5 µM (RBL-2H3 cells; Rattus norvegicus, RBL-2H3, 0.25 h, 7.5 μM, 0.1% DMSO and 0.1% ethanol (Table 3), read-out: 3H-serotonin net release (%)): 0% | IC50 (RBL-2H3 cells; [6]): 3.8 µM | inhibition at 7.5 µM (RBL-2H3 cells; [7]): 100% | IC50 (RBL-2H3 cells; [5]): 9.5 µM | functional effect following receptor activation (serotonin release) (RBL-2H3 cells): can inhibit the effects induced by mast cell activation and exert an effect that is higher than or comparable to the one of cannabinoids | Specific binding [2]: 843 | solubility [3, 8]: > 10000 µg/mL | solubility ([3]; phosphate buffer, pH 7.4, aqueous buffer): > 1000 µg/mL | solubility in water [3]: scarcely soluble

C=CCCCCCCCCC(=O)NCCO [Example 28, N-(2-hydroxyethyl)-10-undecenoylamide]
inhibition at 10 µM [1]: 77% | activity at 100 µM (RBL-2H3 cells; [10]): 100% | solubility [3, 8]: > 10000 µg/mL | solubility [3, 9]: > 10000 µg/mL | solubility in water [3]: scarcely soluble

CCCCCCCCCCCCCCCC(=O)N1CCOCC1 [Example 29, N-palmitoyl-morpholine]
inhibition at 50 µM (RBL-2H3 cells; [15]): 36% | inhibition at 30 µM (RBL-2H3 cells; Rattus norvegicus, RBL-2H3, read-out: 3H-serotonin release inhibition %, 1% DMSO, 30 μM (Table 8)): 88% | EC50 (RBL-2H3 cells; [13]): 42 µM | EC50 (RBL-2H3 cells; [14]): 3.5 µM | solubility [3, 8]: > 10000 µg/mL | solubility [3, 16]: > 10000 µg/mL | solubility in water [3]: scarcely soluble

CCCCCCCCCCCCCCCC(=O)N[C@H](C)CO [Example 30, N-palmitoyl-[R(-)-2-amino-1-propanol]]
EC50 (RBL-2H3 cells; [13]): 3.9 µM | solubility [3, 8]: > 5000 µg/mL | solubility [3, 9]: > 10000 µg/mL | solubility in water [3]: scarcely soluble

CCCCCCCCCCCCCCCC(=O)N[C@@H](C)CO [Example 31, N-palmitoyl-[S(+)-2-amino-1-propanol]]
EC50 (RBL-2H3 cells; [13]): 7.7 µM | solubility [3, 8]: > 5000 µg/mL | solubility [3, 9]: > 10000 µg/mL | solubility in water [3]: scarcely soluble

CCCCCCCCCCCCCCCC(=O)NC[C@@H](C)O [Example 32, N-palmitoyl-[R(-)-1-amino-2-propanol]]
EC50 (RBL-2H3 cells; [13]): 0.73 µM | solubility [3, 9]: > 5000 µg/mL | solubility in water [3]: scarcely soluble

CCCCCCCCCCCCCCCC(=O)NC[C@H](C)O [Example 33, N-palmitoyl-[S(+)-1-amino-2-propanol]]
EC50 (RBL-2H3 cells; [13]): 4.7 µM | solubility [3, 9]: > 5000 µg/mL | solubility in water [3]: scarcely soluble

CCCCCCCCCCCCCCCC(=O)NCCc1ccc(O)cc1 [Example 34, N-(p-hydroxy-phenylethyl)-palmitoylamide]
EC50 (RBL-2H3 cells; [13]): 13 µM | EC50 (RBL-2H3 cells; [14]): 0.36 µM | solubility [3, 8]: > 10000 µg/mL | solubility [3, 9]: > 10000 µg/mL | solubility in water [3]: scarcely soluble

CCCCCCCCCCCCCCCC(=O)NCCOC [Example 35, N-(2-methoxy-ethyl)-palmitoylamide]
EC50 (RBL-2H3 cells; [13]): 6.3 µM | EC50 (RBL-2H3 cells; [14]): 9.2 µM | solubility [3, 9]: > 10000 µg/mL | solubility in water [3]: scarcely soluble

CCCCCCCCCCCC(=O)N1CCOCC1 [Example 36, N-lauroyl-morpholine]
activity at 100 µM (RBL-2H3 cells; [10]): 51% | solubility [3, 8]: > 10000 µg/mL | solubility [3, 9]: > 10000 µg/mL | solubility in water [3]: scarcely soluble

CCCCCCCCCCCCCCCCCC(=O)N1CCOCC1 [Example 37, N-stearoyl-morpholine]
EC50 (RBL-2H3 cells; [14]): 15 µM | solubility [3, 16]: > 10000 µg/mL | solubility in water [3]: scarcely soluble

CCCCCCCCCCCCCCCCCC(=O)NCc1ccc(O)c(OC)c1 [Example 39, N-(4-hydroxy-3-methoxybenzyl)-stearoylamide]
activity at 50 µM (RBL-2H3 cells; [4]): 68% | inhibition at 50 µM (RBL-2H3 cells; [15]): 32% | inhibition at 100 µM (RBL-2H3 cells; [12]): 67% | solubility [3, 8]: > 10000 µg/mL | solubility [3, 9]: > 10000 µg/mL | solubility in water [3]: scarcely soluble
